Measured values as given in patent EP4721744A1, “PHARMACEUTICAL COMPOSITION COMPRISING CEPHALOSPORIN ANTIBACTERIAL COMPOUND” (Jiangsu Hengrui Pharmaceuticals Co., Ltd., priority 2023, dated 2024).

Experiments:
[1] = Solubility test in different solvent systems; assay type: physicochemical
Method: Different solvent systems were prepared to test the solubility of the compound as shown in formula (I). Table 1 Solubility test

[2] = bulk compound; needs to be stored at or below -60°C; cited from earlier work
[3] = Purified water + 1 M NaOH solution for pH adjustment, 4.9 ml, charging amount 500.4 mg
[4] = Purified water, 250 mL, charging amount 20.01 mg

Dissolution Status ([1]; Hydrochloric acid (pH 1.0), 200 mL, charging amount 19.99 mg): Incomplete dissolution
Dissolution Status [1, 3]: Complete dissolution
Solution pH after complete dissolution [1, 3]: 5.08
Dissolution Status ([1]; Purified water, 20 mL, charging amount 20.01 mg): Incomplete dissolution
Dissolution Status [1, 4]: Complete dissolution
Solution pH after complete dissolution [1, 4]: 3.6
solubility ([1]; Purified water, 250 mL, solution pH 3.6): < 1 mg/mL
solubility ([1]; purified water adjusted with 1 M NaOH solution, aqueous buffer, Purified water + 1 M NaOH solution for pH adjustment, 4.9 ml, solution pH 5.08): ≥ 100 mg/mL
SMILES: CC(C)(O/N=C(\C(=O)N[C@@H]1C(=O)N2C(C(=O)[O-])=C(C[N+]3(CCCN(CCCNC(=O)c4ccc(O)c(O)c4Cl)C(=O)c4ccc(O)c(O)c4Cl)CCCC3)CS[C@H]12)c1csc(N)n1)C(=O)O [compound as shown in formula (I)]
stability [2]: extremely poor stability
